Measurements as given in ChEMBL document CHEMBL1201862, “PubChem BioAssay data set” (2004).
Where “and” joins values, the source holds several entries; their conditions need not be identical. Equal values may be shown once. Calls of active or inactive are those of the source.

Tests used:
[1] = biological target: NAD-dependent protein deacylase sirtuin-5, mitochondrial (Homo sapiens, UniProt Q9NXA8); assay: SIRT5 deacylase inhibitors, dose response, biochemical, fluorescence imaging, cherry-pick, set 6 (AID 720597)
[2] = inhibitors of CMV-promoter luciferase reporter, dose response, counter-screen for Pax8 inhibitor project, cell-based, HEK293, luminescence, dry powder (AID 743020); type: functional
[3] = HEK293T cytotoxicity, dose response, cytotoxicity control for miR-122 modulator project, cell-based, activator set, cherry-pick (AID 720690); type: functional;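 also: HEK293T human cells scored for general mammalian cytotoxicity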
[4] = HEK293T cytotoxicity, dose response, cytotoxicity control for miR-122 modulator project, cell-based, inhibitor set, cherry-pick, set 2 (AID 720697); type: functional
Paired box protein Pax-8 = Paired box protein Pax-8 (Homo sapiens, UniProt Q06710); assay: inhibitors of PAX8-driven TPO luciferase reporter, dose response, RMG-I cells, cherry-pick (AID 687027); type: functional, cell-based;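 also: luciferase reporter driven by Pax8 target thyroperoxidase promoter measured by SteadyGlo luminescence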
[5] = Dose-response inhibition of insulin secretion in a rat insulinoma line at 5 mM glucose (AID 1117331); type: functional, cell-based; details: INS-1E
[6] = HeLa 4N DNA content increase, dose response, cell-based, IC50 (AID 1117351); type: functional
[7] = HeLa 2N DNA content increase, dose response, cell-based, IC50 (AID 1117349); type: functional
cells [8] = type: functional, cell-based; details: INS-1E
[9] = TB: CFU replicating Measured in Microorganism System Using Imaging - 7108-05_Inhibitor_Dose_DryPowder_Activity_Set2.; type: functional
cells [10] = assay: cells
[11] = IGROV1 ovarian cancer cell cytotoxicity, dose response, PAX8 inhibitor project, plate reader, dry powder samples (AID 743043); type: functional, cell-based; details: IGROV-1
[12] = cytotoxicity dependent on PAX8, dose response, cell-based, plate reader, dry powder (AID 743049); type: functional
[13] = cytotoxicity in OVCAR8 ovarian cancer cells, dose response, PAX8 project, cell-based, plate reader, dry powder samples (AID 743197); type: functional; details: OVCAR-8
[14] = PAX5 activity inhibitors, dose response, selectivity assay for PAX8 inhibitor project, cell-based, plate reader, dry powder samples (AID 743047); type: functional;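 also: HEK293 cells carrying a Pax5 driven CD19 promoter luciferase reporter; potency of inhibitors that lower reporter luminescence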
[15] = cytotoxicity in COV434 cells, dose response, cytotoxicity control for PAX8 inhibitor project, cell-based, plate reader, dry powder, SA7 (AID 743145); type: functional
[16] = PAX2 cell-based inhibition, dose response, selectivity assay for PAX8 inhibitor project, plate reader, dry powder samples (AID 743048); type: functional;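 also: HEK293 cells carrying a WT1 promoter luciferase reporter driven by expressed Pax2; potency is for inhibition of Pax2 driven reporter signal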
[17] = cytotoxicity in COV362 ovarian cancer cells, dose response, cytotoxicity control for PAX8 inhibitor project, cell-based, plate reader, dry powder, SA12 (AID 743144); type: functional
[18] = CellTiter-Glo luminescent dose response of DLD-1 viability loss (AID 1117352); type: functional
[19] = SNU-C1 cell viability reduction, dose response, CellTiter-Glo luminescence (AID 1117323); type: functional, cell-based
[20] = cytotoxicity toward HT-29 cells – cell-based, CellTiter-Glo luminescence, IC50, dose response (AID 1117330); type: functional
P388/ADR = assay: cells; type: functional; details: Mus musculus
[21] = Concentration-dependent survival of SW480 colon cancer line, luminescence detection with CellTiter-Glo, half-maximal inhibitory concentration (AID 1117338); type: functional
[22] = RKO cell viability reduction, dose response, CellTiter-Glo luminescence (AID 1117322); type: functional
P388 = assay: cells; type: functional; details: Mus musculus
[23] = cytotoxicity toward HCT116 cells – cell-based, CellTiter-Glo luminescence, IC50, dose response (AID 1117332); type: functional; details: HCT-116
[24] = cytotoxicity toward Colo320 cells – cell-based, CellTiter-Glo luminescence, IC50, dose response (AID 1117334); type: functional; details: COLO 320
[25] = HCT116 cell viability decrease, GSK3B pretreatment – CellTiter-Glo, IC50, dose response (AID 1117339); type: functional; details: HCT-116
[26] = biological target: T1, Runt-related transcription factor 1/Core-binding factor subunit beta (Homo sapiens, UniProt Q01196+Q13951); assay: inhibitors of RUNX1 Runt–CBFb-SMMHC binding, primary screen, biochemical, FRET, Cerulean-Runt, Venus-CBFb-SMMHC, uHTS (AID 1434); type: protein assay;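 also: partner is the CBFb-SMMHC leukemia fusion protein rather than wild-type CBFb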
cells [27] = details: A549
[28] = biological target: T1, Runt-related transcription factor 1/Core-binding factor subunit beta; assay: inhibitors of RUNX1 Runt–CBFb-SMMHC binding, biochemical, TR-FRET (AID 1438); type: protein assay
cells [29] = details: HEK293;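 also: cells exposed to compound for 48 hours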
[30] = biological target: Metabotropic glutamate receptor 3 (Rattus norvegicus, UniProt P31422); assay: mGlu3 NAM potency via calcium readout, dose response, mGlu3 NAM project, TREx293 cells, Galpha15, calcium flux (AID 651840); type: functional
HEK293 = assay: HEK293T cell cytotoxicity, dose response, cytotoxicity control, ATP luminescence, cherry-pick samples (AID 687005); type: functional, cell-based; details: Homo sapiens;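 also: cells exposed to compound for 48 hours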
[31] = HEK293 Cytotoxicity Assay Measured in Cell-Based System Using Plate Reader - 7071-01_Inhibitor_Dose_CherryPick_Activity_Set2.; type: functional
[32] = A2780 ovarian cancer cell cytotoxicity, dose response, cytotoxicity control, plate reader, dry powder samples (AID 743046); type: functional, cell-based
[33] = NIH:OVCAR-3 ovarian cancer cell cytotoxicity, dose response, PAX8 inhibitor project, plate reader, dry powder samples (AID 743044); type: functional, cell-based
cells [34] = details: HEK293; remark: listed apart in the source;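 also: cells exposed to compound for 48 hours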
[35] = A549 cell cytotoxicity, dose response, cytotoxicity control, plate reader, dry powder, set 6 (AID 743312); type: functional, cell-based
[36] = biological target: Protein disulfide-isomerase (Homo sapiens, UniProt P07237); assay: PDI inhibitors, insulin turbidity readout, confirmation, biochemical, dry powder samples, set 2 (AID 652146)
[37] = Late stage assay provider results from the probe development effort to identify inhibitors of the Plasmodium falciparum M18 Aspartyl Aminopeptidase (M18AAP): radiolabel-based cell-based dose response assay to identify compounds that inhibit P. falciparum growth in RBCs, Set 2..; type: functional
[38] = ADAM10 inhibitors, peptide cleavage, dose response, biochemical, QFRET (AID 743254);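 also: ADAM10 enzyme with the DM2 quenched FRET peptide as substrate; EDANS fluorescence gain as the protease cuts the substrate; inhibitor potency against ADAM10 proteolytic activity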
[39] = biological target: T2, Disintegrin and metalloproteinase domain-containing protein 17 (Homo sapiens, UniProt P78536); assay: ADAM17 protease inhibitors, dose response, counter-screen for ADAM10 exosite inhibitor project, biochemical, quenched FRET substrate (AID 743253)
[40] = biological target: T2, Disintegrin and metalloproteinase domain-containing protein 17; assay: exosite inhibitors of ADAM17, dose response, biochemical (AID 743260)
[41] = ADAM10 protease inhibitors, dose response, selectivity assay for ADAM17 exosite inhibitor project, biochemical, FRET peptide substrate, recombinant human ADAM10 (AID 743259);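 also: ADAM10 enzyme cleaving a FRET peptide substrate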
[42] = Luminescence Cell-Based Dose Retest to Confirm Inhibitors of Cancer Stem Cells. [Related pubchem assays (depositor defined):AID2717, AID2721]; type: functional; details: Homo sapiens
[43] = biological target: Nuclear receptor subfamily 0 group B member 1 (Homo sapiens, UniProt P51843); type: functional, cell-based;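 also: HEK293T cells transfected with SF-1 and DAX-1 plus StAR promoter luciferase reporter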
[44] = control 3'UTR Renilla luciferase suppression, dose response, counter-screen for Shn3 inhibitor project, cell-based, Clone20-Shn3RL, cherry-picked (AID 624133); type: functional
cells [45] = assay: cells; remark: listed apart in the source
[46] = Shn3 3'UTR reporter inhibitors, dose response, cell-based, Clone20 osteoblasts, firefly luciferase, cherry-picked (AID 624132); type: functional;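 also: firefly luciferase luminescence from reporter carrying the Shn3 3'UTR in osteoblasts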
cells [47] = type: functional, cell-based
[48] = cytotoxicity in HEK-293T cells, dose response, cytotoxicity control for BCR NF-kB inhibitor project, luminescence, B-cell screen hits (AID 489021); type: functional, cell-based;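 also: HEK-293T cells carrying an NF-kB luciferase reporter; cells exposed to compound for about 14 hours before viability readout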
Major prion protein = Major prion protein (Homo sapiens, UniProt P04156); type: functional, cell-based
INS1 = assay: beta cell apoptosis inhibitors, cytokine rescue, dose response, luminescence, retest (AID 449756); type: functional, cell-based;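 also: cell death triggered by IL-1 beta plus TNF-alpha plus IFN-gamma mixture; protective hits raise ATP signal compared with cytokine alone wells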

CCC(=O)N1C[C@@H](C)[C@@H](OC)CN(C)C(=O)c2cc(NC(=O)CC(F)(F)F)ccc2OC[C@@H]1C
AC50 [1]: 4 µM (active)

C[C@H](CO)N1C[C@H](C)[C@@H](CN(C)C(=O)c2ccc3c(c2)OCO3)Oc2cc(C#Cc3ccccc3F)ccc2S1(=O)=O
AC50 [2]: 62.6 µM (active)
AC50 [3]: 17.7 µM (active)
AC50 [4]: 9.58 µM (active)
AC50 (Paired box protein Pax-8): 6.89 µM (active)

Nc1ccc2cc3ccc(N)cc3nc2c1 [PROFLAVINE HEMISULFATE]
IC50 [5]: 20.6 µM (inactive)
IC50 [6]: > 10 µM (inactive)
IC50 [7]: > 10 µM (inactive)
IC50 (cells [8]): > 33.3 µM (inactive)

Cn1c(NC(=O)c2ccccc2F)nc2ccccc21
AbsAC90 [9]: 128.74 µM

CCN(CC)c1ccc2cc(C(N)=O)c(=O)oc2c1
AC50 (cells [10]): 0.573 µM (active)

N#C[C@@H]1[C@@H](c2ccc(C#Cc3ccccc3F)cc2)[C@H](CO)N1C(=O)C1CCCCC1
AC50 [11]: 33.4 µM (active)
AC50 [12]: 28.6 µM (active)
AC50 [13]: 37.5 µM (active)
AC50 [14]: 25.8 µM (active)
AC50 [15]: 25 µM (active)
AC50 [16]: 53.3 µM (active)
AC50 (Paired box protein Pax-8): 9.74 µM (active)
AC50 [17]: 32.4 µM (active)

CCCCCCCCCCCCCCCCOP(=O)([O-])OCC[N+](C)(C)C [MILTEFOSINE]
IC50 [18]: 1.23 µM (active)
IC50 [19]: 0.965 µM (active)
IC50 [20]: 1.96 µM (active)
GI50 (P388/ADR): 35.4 µM (inactive)
IC50 [21]: 0.478 µM (active)
IC50 [22]: 0.437 µM (active)
GI50 (P388): 21.2 µM (inactive)
IC50 [23]: 3.39 µM (active)
IC50 [24]: 1.49 µM (active)
IC50 [25]: 1.48 µM (active)

O=c1[nH]c(=O)c2nc(-c3ccc(Cl)cc3)cnc2[nH]1
IC50 [26]: 0.643 µM (active)
AC50 (cells [27]): > 52 µM (inactive)
IC50 [28]: > 100 µM (inactive)
AC50 (cells [29]): > 52 µM (inactive)

CCCCC1(O)CCCN(C(=O)c2ccc(C#Cc3ccc(OC)cc3)cc2)C1 (stereo not drawn)
IC50 [30]: 2.92 µM

COC(=O)C1=C(C)N(Cc2ccc(Cl)cc2)C(=S)NC1c1cccc(F)c1 (stereo not drawn)
AC50 (HEK293): 21.4 µM (active)
AC50 [31]: 21.4 µM (active)

CC(C)(C)[S+]([O-])N1Cc2cc(C(=O)NCCCN3CCOCC3)nc(-c3cccc(C#CCC4CCCC4)c3)c2[C@@H]1CCO (stereo partly drawn)
AC50 [32]: 4.02 µM (active)
AC50 [33]: 40.4 µM (active)
AC50 (Paired box protein Pax-8): 24 µM (active)

CC(C)c1ccccc1NCCn1c(=S)[nH]c2ccccc21
AC50 (cells [34]): 27.5 µM (active)
AC50 [35]: 21.1 µM (active)

CCOC(=O)C1(Cc2ccccc2)CCN(Cc2ccc(O)c(Cl)c2)CC1
AC50 [36]: > 30 µM (inactive)

Oc1ccc(CCNc2c3ccccc3nc3ccccc23)cc1
IC50 [37]: 0.7 µM (active)

O=C(NC(Cc1c[nH]c2ccccc12)C(=O)Nc1ccc(OC(F)(F)F)cc1)c1cccs1 (stereo not drawn)
IC50 [38]: 11 µM (inactive)
IC50 [39]: > 69.5 µM (inactive)

O=C(NCC(c1ccc(F)cc1)N1CCOCC1)c1ccc(Br)o1 (stereo not drawn)
IC50 [40]: > 69.5 µM (inactive)
IC50 [41]: > 69.5 µM (inactive)

C[C@H]1CCC/C=C/[C@@H]2C[C@H](O)C[C@H]2[C@H](O)/C=C/C(=O)O1 [BREFELDIN A]
AC50 [42]: < 0.16 µM (active)
IC50 [43]: 0.134 µM (active)
AC50 [44]: 10.3 µM (active)
IC50 (cells [45]): > 138 µM (inactive)
AC50 [46]: 3.15 µM (active) and 2.2 µM (active)
IC50 (cells [47]): > 67.6 µM (inactive)
IC50 [48]: > 80 µM (inactive)
IC50 (Major prion protein): 3.5 µM (active)
AC50 (INS1; Rattus norvegicus, INS1): 1.03 µM (active)
AC50 (INS1; ins1): 1.06 µM (active)
AC50 (Paired box protein Pax-8): < 0.26 µM (active)
